Source: ChEMBL document CHEMBL4673296 (J Med Chem, 2020)
Activity calls are given as the source filed them. The rule behind the calls is not given here.

What was measured:
MDA-MB-468 [1] = assay: Induction of apoptosis in human MDA-MB-468 cells assessed as necrotic cells at 10 uM measured after 18 hrs in low-glucose, amino acid-free Earles balanced salt solution (EBSS) media by AnnexinV/7-AAD staining based flow cytometric analysis (reference value: 0.1%); format: functional
MDA-MB-468 [2] = assay: Synergistic cytotoxicity against human MDA-MB-468 cells a t0.021 to 15 uM in presence of PARP inhibitor olaparib measured after 72 hrs by Celltiter-Glo assay; format: functional, cell-based; conditions: dose 0.021-15 µM
MDA-MB-468 [3] = assay: cells; conditions: Homo sapiens, MDA-MB-468, 72 h
Description: Cytotoxicity against human MDA-MB-468 cells measured after 72 hrs by Celltiter-Glo assay

MDA-MB-468 [4] = assay: Inhibition of olaparib-induced autophagic flux in human MDA-MB-468 cells expressing tandem-labelled mCherryEGFP-LC3 chimeric protein at 10 uM measured after 48 hrs by flow cytometry; format: functional, cell-based
[5] = Apparent permeability of the compound across apical side to basolateral side in human Caco2 cells; format: ADME, cell-based; conditions: Caco-2
MDA-MB-468 [6] = assay: Induction of apoptosis in human MDA-MB-468 cells assessed as late apoptotic cells at 10 uM measured after 18 hrs in normal growth media by AnnexinV/7-AAD staining based flow cytometric analysis (reference value: 6.8%); format: functional
[7] = molecular target: T1, Serine/threonine-protein kinase ULK1 (Homo sapiens) (UniProt O75385); assay: Binding affinity to recombinant human ULK1 assessed as change in melting temperature at 10 uM by thermal shift assay
T1 sequence (whole entry): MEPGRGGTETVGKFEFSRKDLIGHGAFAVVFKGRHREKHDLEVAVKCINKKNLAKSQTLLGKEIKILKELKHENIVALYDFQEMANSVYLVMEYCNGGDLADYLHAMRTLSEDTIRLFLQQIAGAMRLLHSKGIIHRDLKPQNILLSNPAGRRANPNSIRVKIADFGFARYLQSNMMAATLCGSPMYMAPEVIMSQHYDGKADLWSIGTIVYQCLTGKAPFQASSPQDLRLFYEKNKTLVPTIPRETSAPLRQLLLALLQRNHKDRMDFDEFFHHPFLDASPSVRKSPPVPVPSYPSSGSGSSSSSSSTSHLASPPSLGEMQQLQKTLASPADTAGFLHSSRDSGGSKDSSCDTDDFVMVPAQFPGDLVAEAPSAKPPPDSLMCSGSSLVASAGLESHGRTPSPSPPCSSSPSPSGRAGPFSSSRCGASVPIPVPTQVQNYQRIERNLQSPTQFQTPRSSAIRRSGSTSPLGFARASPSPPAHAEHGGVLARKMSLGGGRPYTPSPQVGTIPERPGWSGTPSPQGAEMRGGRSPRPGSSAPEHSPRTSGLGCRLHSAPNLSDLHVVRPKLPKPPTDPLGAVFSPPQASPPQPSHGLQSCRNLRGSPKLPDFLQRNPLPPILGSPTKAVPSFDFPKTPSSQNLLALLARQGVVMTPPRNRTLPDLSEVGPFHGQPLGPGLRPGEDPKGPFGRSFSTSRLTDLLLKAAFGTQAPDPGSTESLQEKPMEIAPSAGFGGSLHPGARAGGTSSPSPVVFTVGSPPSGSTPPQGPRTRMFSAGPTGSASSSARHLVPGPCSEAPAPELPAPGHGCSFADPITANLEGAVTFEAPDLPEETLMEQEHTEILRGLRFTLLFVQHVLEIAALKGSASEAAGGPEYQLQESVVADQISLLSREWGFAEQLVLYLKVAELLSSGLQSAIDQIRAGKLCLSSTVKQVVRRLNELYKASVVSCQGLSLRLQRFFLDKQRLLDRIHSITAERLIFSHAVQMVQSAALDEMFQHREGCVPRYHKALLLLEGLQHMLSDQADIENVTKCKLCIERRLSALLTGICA

[8] = molecular target: T1, Serine/threonine-protein kinase ULK1 (Homo sapiens); assay: Inhibition of Myc-tagged ULK1 (unknown origin) expressed in HEK293T cells cotransfected with wild-type Flag tagged Vps34 assessed as decrease in pVPS34 Ser249 at 10 uM measured after 1 hr by Western blot analysis relative to control; format: cell-based
[9] = Tmax in C57BL/6J mouse at 30 mg/kg, po measured upto 24 hrs by LC-MS/MS analysis; format: ADME, organism-based; conditions: in vivo
[10] = molecular target: T2, Serine/threonine-protein kinase ULK2 (Homo sapiens, UniProt Q8IYT8); assay: Inhibition of recombinant human ULK2 (1 to 478 residues) expressed in Sf9 cells using myelin basic protein as substrate by ADP-glo assay
T2 sequence (Q8IYT8 whole entry): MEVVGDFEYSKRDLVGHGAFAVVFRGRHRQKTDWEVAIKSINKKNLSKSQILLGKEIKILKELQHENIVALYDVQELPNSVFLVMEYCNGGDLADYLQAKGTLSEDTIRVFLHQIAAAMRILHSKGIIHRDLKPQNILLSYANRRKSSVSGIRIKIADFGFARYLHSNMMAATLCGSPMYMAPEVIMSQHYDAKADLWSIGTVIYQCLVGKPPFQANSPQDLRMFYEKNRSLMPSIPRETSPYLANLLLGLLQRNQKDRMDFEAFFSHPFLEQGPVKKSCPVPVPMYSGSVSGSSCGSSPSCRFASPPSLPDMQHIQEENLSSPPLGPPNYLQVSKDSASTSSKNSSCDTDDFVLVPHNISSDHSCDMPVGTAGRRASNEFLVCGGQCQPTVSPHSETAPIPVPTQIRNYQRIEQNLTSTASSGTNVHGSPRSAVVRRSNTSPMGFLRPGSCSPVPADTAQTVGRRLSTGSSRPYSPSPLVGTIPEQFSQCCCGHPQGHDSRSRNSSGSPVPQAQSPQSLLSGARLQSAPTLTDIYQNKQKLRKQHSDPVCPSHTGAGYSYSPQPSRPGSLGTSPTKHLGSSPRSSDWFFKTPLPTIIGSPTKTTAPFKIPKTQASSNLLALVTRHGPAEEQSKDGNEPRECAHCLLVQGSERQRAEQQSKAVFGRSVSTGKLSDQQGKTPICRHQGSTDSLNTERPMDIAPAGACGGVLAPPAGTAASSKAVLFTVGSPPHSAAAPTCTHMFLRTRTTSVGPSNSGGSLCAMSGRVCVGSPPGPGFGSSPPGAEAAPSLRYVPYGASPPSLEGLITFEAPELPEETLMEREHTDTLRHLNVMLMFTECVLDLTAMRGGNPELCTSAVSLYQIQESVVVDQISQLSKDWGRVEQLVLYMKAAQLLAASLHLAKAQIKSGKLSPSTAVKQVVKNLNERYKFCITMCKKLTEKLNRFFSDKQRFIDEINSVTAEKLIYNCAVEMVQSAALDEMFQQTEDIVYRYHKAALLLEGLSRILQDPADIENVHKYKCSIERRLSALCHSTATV

[11] = Apparent permeability of the compound across basolateral side to apical side in human Caco2 cells; format: ADME, cell-based; conditions: Caco-2
Mus musculus = assay: Decrease in total ATG13 level in liver lysate of C57BL/6J mouse at 10 mg/kg, po measured after 2 hrs by Western blot analysis; format: functional, organism-based
MDA-MB-468 [12] = assay: Induction of apoptosis in human MDA-MB-468 cells assessed as viable cells at 10 uM measured after 18 hrs in low-glucose, amino acid-free Earles balanced salt solution (EBSS) media by AnnexinV/7-AAD staining based flow cytometric analysis (reference value: 86.6%); format: functional; conditions: read-out: Activity

For `COc1ccc(Nc2ncc(C(F)(F)F)c(NC3CC3)n2)cc1OC`, the Activity (MDA-MB-468 [1]) was 0.1%, the Activity (MDA-MB-468 [2]) was “Active” and the IC50 (MDA-MB-468 [3]) was 0.3 µM. For the same compound, the inhibition (MDA-MB-468 [4]) was “Active”, the Papp A→B [5] was > 10 ×10⁻⁶ cm/s and the Activity (MDA-MB-468 [6]) was 6.8%. The ΔTm [7] was 8.3 °C, the inhibition [8] was 90% and the Tmax [9] was 1 h. For the same compound, the IC50 [10] was 0.476 µM, the Papp B→A [11] was > 10 ×10⁻⁶ cm/s and the inhibition (Mus musculus) was “Active”. The viability at 10 µM (MDA-MB-468 [12]) was 38.6%.
